Each structure is given as a SMILES string. Some results are limits rather than exact numbers.

The IC50 is the point on the concentration scale where inhibition reaches its midpoint.

The target in the assay is T1, human GluN1/GluN2B NMDA receptors (Homo sapiens, UniProt Q05586+Q13224).
T1 construct: expressed in transfected cells
T1 sequence (Q13224 27-1484, other chains not shown): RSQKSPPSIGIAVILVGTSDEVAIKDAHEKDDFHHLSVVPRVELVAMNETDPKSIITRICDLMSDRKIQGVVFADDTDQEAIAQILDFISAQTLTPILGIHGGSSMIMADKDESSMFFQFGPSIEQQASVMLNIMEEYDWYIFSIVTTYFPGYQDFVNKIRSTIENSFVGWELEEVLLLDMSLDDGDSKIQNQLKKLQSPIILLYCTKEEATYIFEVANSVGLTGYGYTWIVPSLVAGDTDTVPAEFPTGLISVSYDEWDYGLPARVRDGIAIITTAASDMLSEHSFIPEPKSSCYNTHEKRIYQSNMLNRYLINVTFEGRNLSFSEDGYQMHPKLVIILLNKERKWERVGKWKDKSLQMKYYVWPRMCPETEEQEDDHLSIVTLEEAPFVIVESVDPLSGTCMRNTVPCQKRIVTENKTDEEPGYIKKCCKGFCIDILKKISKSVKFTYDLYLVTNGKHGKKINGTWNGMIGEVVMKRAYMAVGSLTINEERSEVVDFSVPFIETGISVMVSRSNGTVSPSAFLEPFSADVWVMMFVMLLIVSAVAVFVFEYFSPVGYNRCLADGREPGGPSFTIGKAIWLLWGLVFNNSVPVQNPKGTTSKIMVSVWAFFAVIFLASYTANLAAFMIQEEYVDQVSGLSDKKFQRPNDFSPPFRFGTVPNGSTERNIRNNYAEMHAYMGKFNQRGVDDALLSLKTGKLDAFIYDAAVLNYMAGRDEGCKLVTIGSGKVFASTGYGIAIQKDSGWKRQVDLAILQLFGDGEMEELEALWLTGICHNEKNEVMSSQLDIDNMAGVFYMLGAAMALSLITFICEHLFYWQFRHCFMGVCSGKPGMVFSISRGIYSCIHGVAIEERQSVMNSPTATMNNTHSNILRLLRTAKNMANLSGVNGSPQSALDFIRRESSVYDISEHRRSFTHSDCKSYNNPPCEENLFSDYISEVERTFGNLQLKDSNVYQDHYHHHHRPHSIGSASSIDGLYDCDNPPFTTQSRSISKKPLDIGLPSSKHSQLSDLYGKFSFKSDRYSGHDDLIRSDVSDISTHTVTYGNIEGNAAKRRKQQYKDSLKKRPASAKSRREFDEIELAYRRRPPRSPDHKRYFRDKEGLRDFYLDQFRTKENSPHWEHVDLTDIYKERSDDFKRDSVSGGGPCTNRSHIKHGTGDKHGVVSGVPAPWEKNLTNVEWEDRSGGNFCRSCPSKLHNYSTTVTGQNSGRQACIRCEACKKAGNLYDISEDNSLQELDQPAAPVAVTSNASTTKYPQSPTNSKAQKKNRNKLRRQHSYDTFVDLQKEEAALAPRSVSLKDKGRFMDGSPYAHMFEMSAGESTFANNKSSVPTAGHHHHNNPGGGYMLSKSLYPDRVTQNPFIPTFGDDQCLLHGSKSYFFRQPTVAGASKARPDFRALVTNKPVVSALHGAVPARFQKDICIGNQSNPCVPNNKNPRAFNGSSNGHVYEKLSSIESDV
Put plainly: Calcium flux (FLIPR) assay on cloned human NR1/GluN2B ion channels expressed in mammalian cells, standard assay. It is filed as cell-based. Conditions: glutamate ~EC40 and 10 μM glycine, stable cell line with Tet-On induced expression. As for the experimental part:
Effects of Test Articles on Cloned Human NR1/GluN2B Ion Channels Expressed in Mammalian Cells
NMDA receptors are ion channels that are highly permeable to Ca^2+ ions, rendering it possible to monitor NMDA receptor function using cell-based calcium flux assay. In this assay, co-agonists glutamate and glycine are added to cells heterologously expressing human GluN1/GluN2B NMDA receptors to initiate cellular Ca^2+ influx. The time course of the changes in intracellular calcium is measured using a fluorescent dye and a FLIPR (Fluorometric Imaging Plate Reader) device.
Twenty four hours before measurements, the expression of the NMDA receptors in the stable cell line is induced with Tet-On inducible system in the presence of a non-selective NMDA receptor blocker. On the day of the experiment, cell culture media is carefully washed and the cells are loaded with Calcium 5 Dye Kit (Molecular Devices) in dye loading buffer containing 137 mM NaCl, 4 mM KCl, 2 mM CaCl2, 0.5 mM MgCl2 (standard assay) or 1.5 mM MgCl2 (HTS assay), 10 mM HEPES and 5 mM D-glucose; pH 7.4. After 1 h incubation at the room temperature, the dye is washed away with the assay buffer (137 mM NaCl (standard assay) or 150 mM (HTS assay), 4 mM KCl (standard assay) or 3 mM (HTS assay), 2 mM CaC2, 0.01 mM EDTA, 10 mM HEPES and 5 mM D-glucose; pH 7.4) In the FLIPR TETRA reader, various concentrations of the test compounds are added to the cells for 5 min while fluorescence is monitored to detect potential agonist activity. Next, co-agonists, glutamate and glycine are added for another 5 minutes. The concentration of glutamate corresponding to ˜EC40 (standard assay) or EC40 (HTS assay) is used to maximize the assay's signal window and ability to detect NMDA receptor antagonists and negative allosteric modulators. A saturating concentration (10 μM) of glycine is also present in the assay. A non-selective NMDA receptor antagonist, (+)MK-801 is used as a positive control for antagonist activity. The fluorescent signal in the presence of test compounds is quantified and normalized to the signal defined by the appropriate control wells.
(Calcium flux is commonly read through the fluorescence of an indicator in the cells.)
Turning to `CN1C(=O)OCC1Cn1ncc2ncc(-c3ccc(F)c(C(F)F)c3)cc21` (racemic) [Example 124, (RS)-4-[[6-[3-(Difluoromethyl)-4-fluoro-phenyl]pyrazolo[4,3-b]pyridin-1-yl]methyl]-3-methyl-oxazolidin-2-one], the IC50 is 1890 nM.
To `CCC(=O)Cn1ncc2ncc(-c3cccc(C(C)(F)F)c3)cc21` [Example 31, 1-[6-[3-(1,1-Difluoroethyl)phenyl]pyrazolo[4,3-b]pyridin-1-yl]butan-2-one] belongs 35 nM; to `CCC(O)Cn1ncc2ncc(-c3cccc(C(C)(F)F)c3)cc21` (racemic) [Example 95, (RS)-1-[6-[3-(1,1-Difluoroethyl)phenyl]pyrazolo[4,3-b]pyridin-1-yl]butan-2-ol], 272 nM.
As to `COC(Cn1ncc2ncc(-c3cc(F)c(F)c(F)c3)cc21)C1CC1` (racemic) [Example 11, (R/S)-1-(2-Cyclopropyl-2-methoxy-ethyl)-6-(3,4,5-trifluorophenyl)pyrazolo[4,3-b]pyridine], the IC50 came out at 1780 nM.
For the compound `O=C(Cn1ncc2ncc(-c3ccc(F)c(OC(F)F)c3)cc21)C1CC1` [Example 77, 1-Cyclopropyl-2-[6-[3-(difluoromethoxy)-4-fluoro-phenyl]pyrazolo[4,3-b]pyridin-1-yl]ethanone], the IC50 was 14 nM.
As for `CC(C)C(=O)Cn1ncc2ncc(-c3cccc(F)c3)cc21` [Example 46, 1-[6-(3-Fluorophenyl)pyrazolo[4,3-b]pyridin-1-yl]-3-methyl-butan-2-one], the IC50 stood at 30 nM.
Under `CN1C(=O)CCC1Cn1ncc2ncc(-c3ccc(F)c(OC(F)F)c3)cc21` (racemic) [Example 114, (RS)-5-((6-(3-(Difluoromethoxy)-4-fluorophenyl)-1H-pyrazolo[4,3-b]pyridin-1-yl)methyl)-1-methylpyrrolidin-2-one] stands > 3000 nM; under `O=C1NCC(Cn2ncc3ncc(-c4ccc(F)c(C(F)F)c4)cc32)O1` (racemic) [Example 20, (RS)-5-[[6-[3-(Difluoromethyl)-4-fluoro-phenyl]pyrazolo[4,3-b]pyridin-1-yl]methyl]oxazolidin-2-one], 197 nM; under `CC(C)C(=O)Cn1ncc2ncc(-c3ccccc3)cc21` [Example 44, 3-Methyl-1-(6-phenylpyrazolo[4,3-b]pyridin-1-yl)butan-2-one], 89 nM.
On to `COCCn1ncc2ncc(-c3ccc(F)c(C)c3)cc21` [Example 89, 6-(4-Fluoro-3-methyl-phenyl)-1-(2-methoxyethyl)pyrazolo[4,3-b]pyridine], for which the IC50 turned out to be 754 nM.
Regarding `O=C1O[C@@H](Cn2ncc3ncc(-c4ccc(F)c(C(F)F)c4)cc32)CN1C1CC1` [Example 136, (R)-3-Cyclopropyl-5-[[6-[3-(difluoromethyl)-4-fluoro-phenyl]pyrazolo[4,3-b]pyridin-1-yl]methyl]oxazolidin-2-one], the IC50 is 997 nM.
For `O=C(Cn1ncc2ncc(-c3ccc(F)c(C(F)F)c3)cc21)C1CC1` [Example 76, 1-Cyclopropyl-2-[6-[3-(difluoromethyl)-4-fluoro-phenyl]pyrazolo[4,3-b]pyridin-1-yl]ethanone], the IC50 came out at 18 nM.
To `CCS(=O)(=O)Cn1ncc2ncc(-c3ccc(F)c(OC(F)F)c3)cc21` [Example 13, 6-[3-(Difluoromethoxy)-4-fluoro-phenyl]-1-(ethylsulfonylmethyl)pyrazolo[4,3-b]pyridine] belongs 1800 nM.
Take `O=C(Cn1ncc2ncc(-c3cccc(C(F)(F)F)c3)cc21)C1CC1` [Example 62, 1-Cyclopropyl-2-[6-[3-(trifluoromethyl)phenyl]pyrazolo[4,3-b]pyridin-1-yl]ethanone]: the half-inhibitory concentration (IC50) is 46 nM.
For `O=C(Cn1ncc2ncc(-c3ccc(F)c(C(F)F)c3)cc21)c1ncccc1F` [Example 140, 2-(6-(3-(Difluoromethyl)-4-fluorophenyl)-1H-pyrazolo[4,3-b]pyridin-1-yl)-1-(3-fluoropyridin-2-yl)ethan-1-one], the IC50 stood at 191 nM.
On to `CC[S+]([O-])Cn1ncc2ncc(-c3ccc(F)c(C(F)F)c3)cc21` (racemic) [Example 83, (RS)-6-(3-(Difluoromethyl)-4-fluorophenyl)-1-((ethylsulfinyl)methyl)-1H-pyrazolo[4,3-b]pyridine], for which the IC50 came to 34 nM.
Under `O=C1OC(Cn2ncc3ncc(-c4ccc(F)c(C(F)F)c4)cc32)CN1C1CC1` (racemic) [Example 134, (RS)-3-Cyclopropyl-5-[[6-[3-(difluoromethyl)-4-fluoro-phenyl]pyrazolo[4,3-b]pyridin-1-yl]methyl]oxazolidin-2-one] stands 1630 nM; under `CC[S+]([O-])Cn1ncc2ncc(-c3cccc(C(F)(F)F)c3)cc21` (racemic) [Example 81, (RS)-1-(Ethylsulfinylmethyl)-6-[3-(trifluoromethyl)phenyl]pyrazolo[4,3-b]pyridine], 128 nM; under `O=C(Cn1ncc2ncc(-c3ccc(F)c(C(F)F)c3)cc21)c1ccsc1` [Example 138, 2-[6-[3-(Difluoromethyl)-4-fluoro-phenyl]pyrazolo[4,3-b]pyridin-1-yl]-1-(3-thienyl)ethanone], 100 nM.
With `CCC(F)(F)Cn1ncc2ncc(-c3ccc(F)c(C(F)F)c3)cc21` [Example 98, 1-(2,2-Difluorobutyl)-6-[3-(difluoromethyl)-4-fluoro-phenyl]pyrazolo[4,3-b]pyridine], the IC50 came to 89 nM.
As for `Cc1cc(-c2cnc3cnn(CC(O)C4CC4)c3c2)ccc1F` (racemic) [Example 101, (RS)-1-Cyclopropyl-2-[6-(4-fluoro-3-methyl-phenyl)pyrazolo[4,3-b]pyridin-1-yl]ethanol], the IC50 came out at 167 nM.
To `Cc1cc(-c2cnc3cnn(C[C@@H](O)C4CC4)c3c2)ccc1F` [Example 103, (S)-1-Cyclopropyl-2-[6-(4-fluoro-3-methyl-phenyl)pyrazolo[4,3-b]pyridin-1-yl]ethanol] belongs 272 nM.
Under `CC(C)C(Cn1ncc2ncc(-c3cccc(C(F)(F)F)c3)cc21)=NO` (mixture of isomers) [Example 6, (E/Z)-3-Methyl-1-[6-[3-(trifluoromethyl)phenyl]pyrazolo[4,3-b]pyridin-1-yl]butan-2-one oxime] stands 2480 nM; under `CCC(O)Cn1ncc2ncc(-c3ccc(F)c(C(F)F)c3)cc21` (racemic) [Example 5, (RS)-1-[6-[3-(Difluoromethyl)-4-fluoro-phenyl]pyrazolo[4,3-b]pyridin-1-yl]butan-2-ol], 48 nM.
As for `O=C1NCC(Cn2ncc3ncc(-c4ccc(F)c(OC(F)F)c4)cc32)O1` (racemic) [Example 125, (RS)-5-[[6-[3-(Difluoromethoxy)-4-fluoro-phenyl]pyrazolo[4,3-b]pyridin-1-yl]methyl]oxazolidin-2-one], the IC50 turned out to be 498 nM.
On to `CCC(=O)Cn1ncc2ncc(-c3ccc(F)c(F)c3)cc21` [Example 34, 1-[6-(3,4-Difluorophenyl)pyrazolo[4,3-b]pyridin-1-yl]butan-2-one], for which the IC50 was determined as 17 nM.
As to `CC(C)C(=O)Cn1ncc2ncc(-c3cccc(C(F)F)c3)cc21` [Example 47, 1-[6-[3-(Difluoromethyl)phenyl]pyrazolo[4,3-b]pyridin-1-yl]-3-methyl-butan-2-one], the IC50 is 23 nM.
Under `CN1CCC(Cn2ncc3ncc(-c4ccc(F)c(OC(F)F)c4)cc32)C1=O` (racemic) [Example 119, (RS)-3-((6-(3-(Difluoromethoxy)-4-fluorophenyl)-1H-pyrazolo[4,3-b]pyridin-1-yl)methyl)-1-methylpyrrolidin-2-one] stands 352 nM; under `O=C(Cn1ncc2ncc(-c3cc(F)cc(F)c3)cc21)C1CC1` [Example 66, 1-Cyclopropyl-2-[6-(3,5-difluorophenyl)pyrazolo[4,3-b]pyridin-1-yl]ethanone], 19 nM; under `FC(F)(F)c1cccc(-c2cnc3cnn(CC4CCO4)c3c2)c1` (racemic) [Example 17, (RS)-1-(Oxetan-2-ylmethyl)-6-[3-(trifluoromethyl)phenyl]pyrazolo[4,3-b]pyridine], 85 nM.
Regarding `CN1CC(Cn2ncc3ncc(-c4ccc(F)c(C(F)F)c4)cc32)CC1=O` (racemic) [Example 120, (RS)-4-[[6-[3-(Difluoromethyl)-4-fluoro-phenyl]pyrazolo[4,3-b]pyridin-1-yl]methyl]-1-methyl-pyrrolidin-2-one], the IC50 turned out to be 89 nM.
For `O=C(Cn1ncc2ncc(-c3ccc(F)c(C(F)F)c3)cc21)c1ccccn1` [Example 14, 2-[6-[3-(Difluoromethyl)-4-fluoro-phenyl]pyrazolo[4,3-b]pyridin-1-yl]-1-(2-pyridyl)ethanone], the IC50 was 112 nM.

The record behind these values is patent publication US11161846B2, “Substituted pyrazolo[4,3-b]pyridines and their use as GluN2B receptor modulators” (JANSSEN PHARMACEUTICA NV, priority 2019, dated 2021).
